Test results from patent publication US20070244190A1, “Neobritannilactone B and acetyl neobritannilactone B” (priority 2006, published 2007).
Like-named read-outs stand apart in the source and are kept apart here.

Tests used:
[1] = tested on: HL-60 cells; assay: Apoptosis (sub-G1) by flow cytometry; format: cell-based, human; details: 24 h, mean ± SE
Method: (§1) Cell Culture and Chemicals. The COLO 205 and HT 29 cell lines were isolated from human colon adenocarcinoma (ATCC CCL-222 and HTB-38); human promyelocytic leukemia (HL-60) cells were obtained from American Type Culture Collection (Rockville, Md.). The human AGS gastric carcinoma cell lines (CCRC 60102) were obtained from the Food Industry Research and Development Institute (Hsinchu, Taiwan). Cell lines were grown at 37° C. in 5% CO2 dioxide atmosphere in RPMI for COLO 205, HT-29, and HL-60 cells and DMEM/F12 for AGS cells, all supplemented with 10% heat-inactivated fetal bovine serum (GIBCO BRL, Grand Island, N.Y.) (100 units/mL of penicillin, 100 μg/mL of streptomycin), and 2 mM L-glutamine (GIBCO BRL). Selected compounds were dissolved in dimethyl sulfoxide (DMSO). Propidium iodide was obtained from Sigma Chemical Co. (St. Louis, Mo.).
(§2) Flow Cytometry. Human cancer cells (2×10^5) were cultured in 60-mm Petri dishes and incubated for 24 h. The apoptotic cells (sub-G1) in the selected compounds and treated cells were measured by flow cytometry analysis. Then cells were harvested, washed with PBS, resuspended in 200 μL of PBS, and fixed in 800 μL of iced 100% ethanol at −20° C. After being left to stand overnight, the cell pellets were collected by centrifugation, resuspended in 1 mL of hypotonic buffer (0.5% Triton X-100 in PBS and 0.5 μg/mL RNase), and incubated at 37° C. for 30 min. Then 1 mL of propidium iodide solution (50 μg/mL) was added and the mixture was allowed to stand on ice for 30 min. Fluorescence emitted from the propidium iodide-DNA complex was quantitated after excitation of the fluorescent dye by FACScan cytometry (Becton Dickinson, San Jose, Calif.).
(§3) The compounds isolated from Inula were tested for their effects on the apoptotic ratio in human cancer cells.

[2] = tested on: COLO 205 cells; assay: Apoptosis (sub-G1) by flow cytometry; format: cell-based, human; details: 24 h, mean ± SE
Method: as §1, §2, §3

[3] = tested on: HT-29 cells; assay: Apoptosis (sub-G1) by flow cytometry; format: cell-based, human; details: 24 h, mean ± SE
Method: as §1, §2, §3

[4] = tested on: AGS cells; assay: Apoptosis (sub-G1) by flow cytometry; format: cell-based, human; details: 24 h, mean ± SE
Method: as §1, §2, §3

[5] = tested on: HL-60 cells; assay: Cell viability, trypan blue exclusion, 24 h; format: cell-based; details: HL-60, 24 h, mean ± SE, n=3, read-out: IC50, growth of human cancer cells
Method: as §1
(§4) Determination of Cell Viability. Human cancer cells were treated either with DMSO (0.01%) or the selected compounds (5-100 μM). Cell viability was determined at 24 h based on trypan blue exclusion assay. The viability percentage was calculated based on the percentage of unstained cells. Suspensions of cells were diluted 1:1 with 0.5% trypan blue solution. Stained and unstained cells were counted in a hemocytometer.

[6] = tested on: COLO 205 cells; assay: Cell viability, trypan blue exclusion, 24 h; format: cell-based; details: COLO 205, 24 h, mean ± SE, n=3, read-out: IC50, growth of human cancer cells
Method: as §1, §4

[7] = tested on: HT-29 cells; assay: Cell viability, trypan blue exclusion, 24 h; format: cell-based; details: HT-29, 24 h, mean ± SE, n=3, read-out: IC50, growth of human cancer cells
Method: as §1, §4

[8] = tested on: AGS cells; assay: Cell viability, trypan blue exclusion, 24 h; format: cell-based; details: mean ± SE, n=3, read-out: IC50, growth of human cancer cells
Method: as §1, §4

Structure (SMILES)	apoptotic ratio ([1]; HL-60, 5 μM)	apoptotic ratio ([1]; HL-60, 10 μM) [%]	apoptotic ratio ([1]; HL-60, 25 μM) [%]	apoptotic ratio ([1]; HL-60, 50 μM) [%]	apoptotic ratio ([1]; HL-60, 100 μM)	apoptotic ratio ([2]; COLO 205, 5 μM)	apoptotic ratio ([2]; COLO 205, 10 μM)	apoptotic ratio ([2]; COLO 205, 25 μM) [%]	apoptotic ratio ([2]; COLO 205, 50 μM)	apoptotic ratio ([2]; COLO 205, 100 μM) [%]	apoptotic ratio ([3]; HT-29, 5 μM) [%]	apoptotic ratio ([3]; HT-29, 10 μM) [%]	apoptotic ratio ([3]; HT-29, 25 μM)	apoptotic ratio ([3]; HT-29, 50 μM) [%]	apoptotic ratio ([3]; HT-29, 100 μM)	apoptotic ratio ([4]; 5 μM)	apoptotic ratio ([4]; 10 μM) [%]	apoptotic ratio ([4]; 25 μM)	apoptotic ratio ([4]; 50 μM)	apoptotic ratio ([4]; 100 μM)	other results
C=C1C(=O)O[C@@H]2CC(C)=C([C@@H](C)CCCO)[C@H](O)[C@H]12 [Compound 5, britannilactone]	7.22 ± 1.54%	5.64 ± 2.00	5.24 ± 0.67	8.01 ± 1.34	12.83 ± .06%	11.90 ± 3.61%	12.28 ± 5.24%	12.79 ± 1.84	15.54 ± 2.14%	28.31 ± 1.89	5.75 ± 1.77	6.16 ± 1.23	6.49 ± 1.07%	6.59 ± 0.54	7.55 ± .08%	7.93 ± 1.71%	10.37 ± 0.98	10.16 ± .28%	8.97 ± 0.66%	10.37 ± 0.66%	IC50 ([5]; Homo sapiens): > 100 µM; IC50 ([6]; Homo sapiens): > 100 µM; IC50 ([7]; Homo sapiens): > 100 µM; IC50 ([8]; Homo sapiens): > 100 µM
C=C1C(=O)OC2CC(C)=C(C(C)CCCOC(C)=O)C(O)C12 (stereo not drawn) [Compound 6, 1-O-acetylbritannilactone]	4.05 ± 0.31%	7.26 ± 2.15	4.37 ± 0.57	5.69 ± 0.60	22.19 ± 4.14%	13.44 ± .25%	11.32 ± .421%	16.48 ± 3.75	16.59 ± 0.71%	35.79 ± 1.36	5.36 ± 1.80	6.81 ± 2.14	11.68 ± 3.02%	9.26 ± 1.80	14.87 ± .90%	15.37 ± 6.22%	17.28 ± 2.29	14.66 ± 1.38%	14.84 ± .58%	18.85 ± .68%	IC50 [5]: > 100 µM; IC50 [6]: > 100 µM; IC50 [7]: 96 ± 12.5 µM; IC50 [8]: > 100 µM
C=C1C(=O)OC2CC(C)=C(C(C)CCCOC(C)=O)C(OC(C)=O)C12 (stereo not drawn) [Compound 7, 1,6-O,O-diacetylbritannilactone]	6.14 ± .20%	8.67 ± 2.06	21.13 ± 0.37	27.02 ± 2.69	22.24 ± 1.06%	6.94 ± .33%	8.69 ± 1.65%	26.95 ± 0.30	15.44 ± .08%	17.82 ± 2.26	11.19 ± 3.98	11.15 ± 2.84	11.50 ± .92%	13.08 ± 0.63	20.88 ± .09%	7.49 ± .88%	5.79 ± 0.64	11.29 ± 2.16%	10.79 ± 2.79%	8.12 ± .26%	IC50 [5]: 35.3 ± 0.44 µM; IC50 [6]: 56.7 ± 3.66 µM; IC50 [7]: 76.6 ± 5.5 µM; IC50 [8]: 66.4 ± 6.29 µM
